Activity calls are given as the source filed them. No cut-off for these calls is given here.
Experiments:
Adenosine receptor A2a = Adenosine receptor A2a (Homo sapiens, UniProt P29274); test: Displacement of [3H][…] from human A2AAR incubated for 60 mins by scintillation counter analysis
Histone deacetylase 1 = Histone deacetylase 1 (Homo sapiens, UniProt Q13547); test: Inhibition of HDAC1 (unknown origin) using trypsin and LGK(Ac)-AMC as substrates incubated for 1 hr and measured by fluorescence assay
MC-38 [1] = test: Antiproliferative activity against mouse MC38 cells after 72 hrs by CCK-8 assay; format: functional
CT26 = test: Antiproliferative activity against mouse CT26 cells after 72 hrs by CCK-8 assay; format: functional
MC38 [2] = test: Inhibition of HDAC in mouse MC38 cells assessed as increase in H3 acetylation at 0.1 to 5 uM measured by western blot analysis; format: cell-based; details: dose 0.1-5 µM
MC38 [3] = test: Inhibition of HDAC in mouse MC38 cells assessed as increase in H4 acetylation at 0.1 to 5 uM measured by western blot analysis; format: cell-based; details: dose 0.1-5 µM
[4] = Half-life in male ICR mouse at 20 mg/kg, po measured up to 24 hrs by LC-MS/MS analysis; format: ADME, organism-based; details: in vivo
[5] = Tmax in male ICR mouse at 20 mg/kg, po measured up to 24 hrs by LC-MS/MS analysis; format: ADME, organism-based; details: in vivo
[6] = Mean residence time in male ICR mouse at 20 mg/kg, po measured up to 24 hrs by LC-MS/MS analysis; format: ADME, organism-based; details: in vivo
[7] = Oral bioavailability in male ICR mouse at 20 mg/kg measured up to 24 hrs by LC-MS/MS analysis; format: ADME, organism-based; details: in vivo
[8] = Elimination rate constant in male ICR mouse at 5 mg/kg, iv measured up to 24 hrs by LC-MS/MS analysis; format: ADME, organism-based; details: in vivo
[9] = Half-life in male ICR mouse at 5 mg/kg, iv measured up to 24 hrs by LC-MS/MS analysis; format: ADME, organism-based; details: in vivo
[10] = Cmax in male ICR mouse at 5 mg/kg, iv measured up to 24 hrs by LC-MS/MS analysis; format: ADME, organism-based; design: dose 5 mg/kg, time < 24 hrs, route iv; details: in vivo
[11] = Initial plasma concentration in male ICR mouse at 5 mg/kg, iv measured up to 24 hrs by LC-MS/MS analysis; format: ADME, organism-based
[12] = Volume of distribution at steady state in male ICR mouse at 5 mg/kg, iv measured up to 24 hrs by LC-MS/MS analysis; format: ADME, organism-based; details: in vivo
[13] = Elimination rate constant in male ICR mouse at 20 mg/kg, ip measured up to 24 hrs by LC-MS/MS analysis; format: ADME, organism-based; details: in vivo
[14] = Half-life in male ICR mouse at 20 mg/kg, ip measured up to 24 hrs by LC-MS/MS analysis; format: ADME, organism-based; details: in vivo
[15] = Tmax in male ICR mouse at 20 mg/kg, ip measured up to 24 hrs by LC-MS/MS analysis; format: ADME, organism-based; details: in vivo
[16] = AUC (0 to t) in male ICR mouse at 20 mg/kg, ip measured up to 24 hrs by LC-MS/MS analysis; format: ADME, organism-based; design: dose 20 mg/kg, time < 24 hrs, route ip; details: in vivo
[17] = Mean residence time in male ICR mouse at 20 mg/kg, ip measured up to 24 hrs by LC-MS/MS analysis; format: ADME, organism-based; details: in vivo
[18] = Bioavailability in male ICR mouse at 20 mg/kg,ip measured up to 24 hrs by LC-MS/MS analysis; format: ADME, organism-based; details: in vivo
Adenosine receptor A1 = molecular target: T1, Adenosine receptor A1 (Homo sapiens, UniProt P30542); test: Displacement of [3H]DPCPX from human A1AR incubated for 60 mins by scintillation counter analysis
T1 sequence (P30542 whole entry): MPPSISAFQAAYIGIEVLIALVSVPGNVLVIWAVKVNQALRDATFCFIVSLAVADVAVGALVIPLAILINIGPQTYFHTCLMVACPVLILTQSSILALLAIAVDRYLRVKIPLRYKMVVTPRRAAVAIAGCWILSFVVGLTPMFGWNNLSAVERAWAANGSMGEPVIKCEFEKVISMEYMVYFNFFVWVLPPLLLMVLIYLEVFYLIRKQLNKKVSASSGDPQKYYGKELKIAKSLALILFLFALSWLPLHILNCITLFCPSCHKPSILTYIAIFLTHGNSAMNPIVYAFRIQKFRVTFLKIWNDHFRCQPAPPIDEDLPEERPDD

Adenosine receptor A2b = molecular target: T2, Adenosine receptor A2b (Homo sapiens, UniProt P29275); test: Displacement of [3H]DPCPX from human A2BAR incubated for 60 mins by scintillation counter analysis
T2 sequence (P29275 whole entry): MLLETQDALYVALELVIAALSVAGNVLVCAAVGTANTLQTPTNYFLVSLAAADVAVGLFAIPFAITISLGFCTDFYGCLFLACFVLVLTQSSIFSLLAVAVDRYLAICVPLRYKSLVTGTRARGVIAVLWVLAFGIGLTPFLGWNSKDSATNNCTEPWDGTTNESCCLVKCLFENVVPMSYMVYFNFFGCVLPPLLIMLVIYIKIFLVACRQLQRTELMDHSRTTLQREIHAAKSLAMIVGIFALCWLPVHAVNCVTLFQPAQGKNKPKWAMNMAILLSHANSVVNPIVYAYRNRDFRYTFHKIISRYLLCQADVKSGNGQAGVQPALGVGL

Adenosine receptor A3 = molecular target: T3, Adenosine receptor A3 (Homo sapiens, UniProt P0DMS8); test: Displacement of [3H]HEMADO from human A3AR incubated for 60 mins by scintillation counter analysis
T3 sequence (P0DMS8 whole entry): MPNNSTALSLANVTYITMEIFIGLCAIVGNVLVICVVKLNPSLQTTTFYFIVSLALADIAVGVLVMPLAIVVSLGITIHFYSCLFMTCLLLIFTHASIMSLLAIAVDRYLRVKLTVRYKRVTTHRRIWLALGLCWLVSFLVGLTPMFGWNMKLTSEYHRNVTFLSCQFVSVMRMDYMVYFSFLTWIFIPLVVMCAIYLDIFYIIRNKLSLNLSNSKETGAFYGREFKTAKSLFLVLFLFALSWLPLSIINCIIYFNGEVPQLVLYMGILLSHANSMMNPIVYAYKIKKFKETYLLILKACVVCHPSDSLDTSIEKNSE

Histone deacetylase 2 = Histone deacetylase 2 (Homo sapiens, UniProt Q92769); test: Inhibition of HDAC2 (unknown origin) using trypsin and LGK(Ac)-AMC as substrates incubated for 1 hr and measured by fluorescence assay
Histone deacetylase 3 = Histone deacetylase 3 (Homo sapiens, UniProt O15379); test: Inhibition of HDAC3 (unknown origin) using trypsin and LGK(Ac)-AMC as substrates incubated for 1 hr and measured by fluorescence assay
MC-38 [19] = test: Antitumor activity against mouse MC38 cells xenografted in C57 mouse assessed as tumor growth inhibition at 90 mg/kg, po administered twice a day; format: functional; details: read-out: TGI
MC-38 [20] = test: Antitumor activity against mouse MC38 cells xenografted in C57 mouse assessed as tumor growth inhibition at 30 mg/kg, ip administered twice a day; format: functional; details: read-out: TGI
MC-38 [21] = test: Antitumor activity against mouse MC38 cells xenografted in C57 mouse assessed as tumor growth inhibition at 60 mg/kg, ip administered twice a day; format: functional; details: read-out: TGI

Sequence of Histone deacetylase 1 (Q13547 whole entry): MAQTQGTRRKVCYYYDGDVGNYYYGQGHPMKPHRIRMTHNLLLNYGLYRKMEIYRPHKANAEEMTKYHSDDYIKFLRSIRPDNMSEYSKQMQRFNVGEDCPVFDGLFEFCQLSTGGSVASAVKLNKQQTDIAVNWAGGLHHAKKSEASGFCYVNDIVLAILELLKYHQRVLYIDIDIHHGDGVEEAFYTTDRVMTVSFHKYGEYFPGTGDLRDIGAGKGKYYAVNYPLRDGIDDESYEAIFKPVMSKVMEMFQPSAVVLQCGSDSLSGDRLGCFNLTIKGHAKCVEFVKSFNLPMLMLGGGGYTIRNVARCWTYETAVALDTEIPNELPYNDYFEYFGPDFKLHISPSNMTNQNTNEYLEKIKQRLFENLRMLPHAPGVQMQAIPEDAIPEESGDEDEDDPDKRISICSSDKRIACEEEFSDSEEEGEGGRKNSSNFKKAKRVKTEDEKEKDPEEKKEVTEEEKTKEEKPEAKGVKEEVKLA
Sequence of Histone deacetylase 3 (O15379 whole entry): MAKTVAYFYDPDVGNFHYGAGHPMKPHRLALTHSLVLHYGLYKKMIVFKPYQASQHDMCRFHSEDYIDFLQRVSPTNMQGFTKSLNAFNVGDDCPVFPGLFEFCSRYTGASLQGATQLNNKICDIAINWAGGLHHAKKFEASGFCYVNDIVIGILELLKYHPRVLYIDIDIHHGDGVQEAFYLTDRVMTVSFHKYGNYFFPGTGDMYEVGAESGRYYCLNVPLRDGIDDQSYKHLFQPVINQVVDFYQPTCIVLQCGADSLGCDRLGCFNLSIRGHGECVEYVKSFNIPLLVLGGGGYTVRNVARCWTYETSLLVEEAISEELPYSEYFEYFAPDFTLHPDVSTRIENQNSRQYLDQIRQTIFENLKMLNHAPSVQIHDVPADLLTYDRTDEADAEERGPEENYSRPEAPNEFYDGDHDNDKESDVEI
Sequence of Histone deacetylase 2 (Q92769 whole entry): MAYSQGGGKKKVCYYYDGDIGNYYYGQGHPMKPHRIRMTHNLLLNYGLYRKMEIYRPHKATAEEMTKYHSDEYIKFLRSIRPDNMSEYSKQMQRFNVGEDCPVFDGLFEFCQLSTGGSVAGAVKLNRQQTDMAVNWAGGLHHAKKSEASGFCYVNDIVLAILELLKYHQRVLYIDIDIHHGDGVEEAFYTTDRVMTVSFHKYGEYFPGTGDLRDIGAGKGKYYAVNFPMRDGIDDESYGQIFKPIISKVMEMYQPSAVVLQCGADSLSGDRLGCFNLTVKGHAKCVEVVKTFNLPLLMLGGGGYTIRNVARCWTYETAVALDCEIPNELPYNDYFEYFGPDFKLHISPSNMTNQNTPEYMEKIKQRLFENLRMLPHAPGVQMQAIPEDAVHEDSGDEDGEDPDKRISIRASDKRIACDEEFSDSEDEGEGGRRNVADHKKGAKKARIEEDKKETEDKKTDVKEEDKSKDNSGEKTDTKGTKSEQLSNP
Sequence of Adenosine receptor A2a (P29274 whole entry): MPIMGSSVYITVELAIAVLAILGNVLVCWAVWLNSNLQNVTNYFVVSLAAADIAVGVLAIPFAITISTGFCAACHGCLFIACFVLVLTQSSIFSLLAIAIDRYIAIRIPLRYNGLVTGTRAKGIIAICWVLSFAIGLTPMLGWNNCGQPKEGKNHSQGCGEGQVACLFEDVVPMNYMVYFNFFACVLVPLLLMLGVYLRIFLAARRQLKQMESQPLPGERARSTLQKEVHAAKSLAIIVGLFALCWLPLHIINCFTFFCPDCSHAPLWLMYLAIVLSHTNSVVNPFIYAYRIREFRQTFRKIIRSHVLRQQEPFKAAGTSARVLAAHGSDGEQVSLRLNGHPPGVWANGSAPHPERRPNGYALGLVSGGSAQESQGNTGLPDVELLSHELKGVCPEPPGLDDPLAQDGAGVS

Nc1nc(-c2ccco2)c2cnn(CCc3ccc(C(=O)Nc4ccccc4N)cc3)c2n1
Ki (Adenosine receptor A2a): 163 nM | IC50 (Histone deacetylase 1): 145 nM | GI50 (MC-38 [1]): 290 nM | GI50 (CT26): 380 nM | inhibition (MC38 [2]): Active | inhibition (MC38 [3]): Active | half-life [4]: 134 min | Tmax [5]: 20 min | MRT [6]: 77.4 min | bioavailability [7]: 43% | k el at 24 h [8]: 0.000506 s⁻¹ | half-life [9]: 23.3 min | Cmax [10]: 4700 ng/mL | C0 at 24 h [11]: 6500 ng/mL | Vdss [12]: 0.92 L/kg | k el at 24 h [13]: 0.000234 s⁻¹ | half-life [14]: 49.8 min | Tmax [15]: 15 min | AUC(0-t) at 24 h [16]: 10000 ng·h/mL | MRT [17]: 57 min | bioavailability [18]: 119% | Ki (Adenosine receptor A1): 503 nM | Ki (Adenosine receptor A2b): > 10000 nM | Ki (Adenosine receptor A3): > 10000 nM | IC50 (Histone deacetylase 2): 240 nM | IC50 (Histone deacetylase 3): 444 nM | inhibition in vivo at 90 mg/kg (MC-38 [19]): 44% | inhibition in vivo at 30 mg/kg (MC-38 [20]): 68% | inhibition in vivo at 60 mg/kg (MC-38 [21]): 85%

From ChEMBL document CHEMBL5154845, “Dual-acting antitumor agents targeting the A2A adenosine receptor and histone deacetylases: Design and synthesis of 4-(furan-2-yl)-1H-pyrazolo[3,4-d]pyrimidin-6-amine derivatives” (Eur J Med Chem, 2022)
